Assay results taken from ChEMBL document CHEMBL5584354, “Impact of Conjugation of the Reactive Oxygen Species (ROS)-Generating Catalytic Moiety with Membrane-Active Antimicrobial Peptoids: Promoting Multitarget Mechanism and Enhancing Selectivity” (J Med Chem, 2024).
Values after ≈ are worked out from the molar mass of the structure shown. Active and inactive are the calls of the source. The rule behind the calls is not given here. Non-standard residues stand in square brackets, D forms with d. Residues, ends and D or L forms follow the SMILES beside them. Gly(N(CH2)2(3-indolyl)) = O=C(O)CNCCc1c[nH]c2ccccc12; Nspe = C[C@H](NCC(=O)O)c1ccccc1; Nlys = NCCCCNCC(=O)O

Legend:
Streptococcus pneumoniae [1] = test: Antibacterial activity against catalase-negative Streptococcus pneumoniae KCMM42691 assessed as cell killing at 12.5 uM incubated for 4 to 16 hrs by CFU assay; format: functional, organism-based; settings: time 4-16 hrs
Acinetobacter baumannii = test: Antibacterial activity against carbapenem-resistant Acinetobacter baumannii NMS1707 harboring extended-spectrum beta-lactamase assessed as inhibition of bacterial growth incubated for 24 hrs by broth dilution method; format: functional
Escherichia coli [2] = test: (§1) Antibacterial activity against Escherichia coli K1 infected in female ICR mouse model of septic shock assessed as reduction in TNFalpha level in serum at 5 mg/kg, ip pretreated for 1 hr followed by bacteria addition and further treated with 3 doses of compound every 4 hrs by ELISA relative to control; format: functional; parameters: scale not given: the % may be the effect or the level left; settings: time 9 hrs
Escherichia coli [3] = test: Antibacterial activity against Escherichia coli K1 infected in female ICR mouse model of septic shock assessed as creatinine level in serum at 5 mg/kg, ip pretreated for 1 hr followed by bacteria addition and further treated with 3 doses of compound every 4 hrs (reference value: 57.3%); format: functional; settings: time 9 hrs
[4] = Toxicity in female ICR mouse assessed as dilatation of interstitial blood capillaries in kidney at 5 mg/kg, ip administered four doses for 12 hrs and measured 24 hrs post last dose by H and E staining based light microscopic analysis; format: organism-based; settings: in vivo, 36 h
Escherichia coli [5] = test: as §1, with “lung edema” for “TNFalpha level in serum”, “H and E staining based light microscopic analysis” for “ELISA relative to control”; format: functional, organism-based; settings: time 9.0 hrs
Escherichia coli [6] = test: Antibacterial activity against colistin-resistant Escherichia coli NMS12 harboring extended-spectrum beta-lactamase assessed as inhibition of bacterial growth incubated for 24 hrs by broth dilution method; format: functional
Escherichia coli [7] = test: Antibacterial activity against Escherichia coli K1 infected in female ICR mouse model of septic shock assessed as reduction in AST level in serum at 5 mg/kg, ip pretreated for 1 hr followed by bacteria addition and further treated with 3 doses of compound every 4 hrs relative to control; format: functional; parameters: scale not given: the % may be the effect or the level left; settings: time 9 hrs
L929 = test: Cytotoxicity against mouse L929 cells assessed as reduction in cell viability at 3.1 to 25 uM incubated for 24 hrs by WST-8 assay; format: toxicity, cell-based; settings: l929, 24 h, dose 3.1-25 µM
[8] = Toxicity in female ICR mouse assessed as effect on blood urea nitrogen level at 5 mg/kg, ip administered four doses for 12 hrs and measured 24 hrs post last dose; format: organism-based; settings: in vivo, 36 h
Escherichia coli [9] = test: Antibacterial activity against Escherichia coli K1 infected in female ICR mouse model of septic shock assessed as reduction in bacterial load in kidney at 5 mg/kg, ip pretreated for 1 hr followed by bacteria addition and further treated with 3 doses of compound every 4 hrs; format: functional, organism-based; settings: time 9.0 hrs
Escherichia coli [10] = test: (§2) Antibacterial activity against Escherichia coli K1 infected in female ICR mouse model of septic shock assessed as reduction in bacterial load in lung at 5 mg/kg, ip pretreated for 1 hr followed by bacteria addition and further treated with 3 doses of compound every 4 hrs; format: functional, organism-based; settings: time 9.0 hrs
RAW264.7 [11] = test: Antiinflammatory activity in LPS-stimulated mouse RAW264.7 cells assessed as reduction in IL-6 production at 10 uM incubated for 16 hrs by ELISA relative to control; format: functional; parameters: scale not given: the % may be the effect or the level left
[12] = Hemolytic activity in male Sprague-Dawley rat erythrocytes assessed as concentration required for 50% hemolysis incubated for 1 hr by absorbance based method; format: toxicity, cell-based, Erythrocyte
Escherichia coli [13] = test: Antibacterial activity against Escherichia coli ATCC 25922 assessed as inhibition of bacterial growth incubated for 24 hrs by broth dilution method; format: functional
Escherichia coli [14] = test: Induction of lipid peroxidation in Escherichia coli ATCC 25922 assessed as increase in MDA level at 10 uM incubated for 2 hrs by TBARS assay; format: functional, organism-based
RAW264.7 [15] = test: Antiinflammatory activity in LPS-stimulated mouse RAW264.7 cells assessed as reduction in TNFalpha production at 10 uM incubated for 16 hrs by ELISA relative to control; format: functional; parameters: scale not given: the % may be the effect or the level left
Cell membrane = test: Disruption of outer membrane in Escherichia coli ATCC 25922 assessed as increase in absorbance measured every 5 mins for 90 mins by nitrocefin assay; format: cell membranes; settings: dose 0-25 µM
[16] = Hemolytic activity in male Sprague-Dawley rat erythrocytes at 100 uM incubated for 1 hr by absorbance based method relative to control; format: toxicity, cell-based, Erythrocyte; settings: read-out: Activity
RAW264.7 [17] = test: Inhibition of LPS-induced NF-kappaB pathway in mouse RAW264.7 cells assessed as reduction in NF-kappaB nuclear translocation at 10 uM preincubated for 1 hr followed by LPS addition and measured after 1 hr by immunofluorescence staining based confocal microscopic analysis; format: cell-based; settings: time 2.0 hrs
RAW264.7 [18] = test: Cytotoxicity against mouse RAW264.7 cells assessed as cell killing incubated for 24 hrs by MTS assay; format: toxicity, cell-based; settings: raw264.7, 24 h
HEK-Blue hTLR7 = test: Inhibition of TLR4-mediated inflammatory signaling in LPS-stimulated HEK-Blue […] cells assessed as reduction in SEAP activity at 20 uM preincubated for 1 hr followed by LPS stimulation and measured after 16 hrs by ELISA relative to control; format: cell-based; settings: Homo sapiens, time 17.0 hrs
Escherichia coli [19] = test: Antibacterial activity against Escherichia coli K1 infected in female ICR mouse model of septic shock assessed as reduction in bacterial load in liver at 5 mg/kg, ip pretreated for 1 hr followed by bacteria addition and further treated with 3 doses of compound every 4 hrs; format: functional, organism-based; settings: time 9.0 hrs
Escherichia coli [20] = test: as §2, with “alveolar hemorrhage” for “bacterial load”, “hrs by H and E staining based light microscopic analysis” for “hrs”; format: functional, organism-based; settings: time 9.0 hrs
Escherichia coli [21] = test: Antibacterial activity against Escherichia coli K1 infected in female ICR mouse model of septic shock assessed as reduction in IL-6 level in serum at 5 mg/kg, ip pretreated for 1 hr followed by bacteria addition and further treated with 3 doses of compound every 4 hrs by ELISA relative to control; format: functional; parameters: scale not given: the % may be the effect or the level left; settings: time 9 hrs
Lipopolysaccharide (LPS) = test: Binding affinity to Escherichia coli O111:B4 LPS at 0 to 25 uM BODIPY-TR-cadaverine substitution assay; format: subcellular; settings: dose 0-25 µM
Staphylococcus aureus = test: Antibacterial activity against Staphylococcus aureus ATCC 25923 assessed as inhibition of bacterial growth incubated for 24 hrs by broth dilution method; format: functional
[22] = Cytotoxicity against mouse RAW264.7 cells assessed as cell viability at 20 uM incubated for 24 hrs by […] relative to control; format: toxicity, cell-based; settings: read-out: Activity
Escherichia coli [23] = test: as §2, with “infiltrated […]” for “bacterial load”, “hrs by H and E staining based light microscopic analysis” for “hrs”; format: functional, organism-based; settings: time 9.0 hrs
DNA = test: Binding affinity to pUC19 plasmid DNA (unknown origin) assessed as smearing and retardation of DNA bands at 25 uM incubated for 2 hrs by agarose gel imaging method; format: nucleic-acid assay
Streptococcus pneumoniae [24] = test: Antibacterial activity against catalase-negative Streptococcus pneumoniae KCMM42691 assessed as inhibition of bacterial growth incubated for 24 hrs by broth dilution method; format: functional
Escherichia coli [25] = test: Antibacterial activity against Escherichia coli K1 infected in female ICR mouse model of septic shock assessed as reduction in ALT level in serum at 5 mg/kg, ip pretreated for 1 hr followed by bacteria addition and further treated with 3 doses of compound every 4 hrs relative to control; format: functional; parameters: scale not given: the % may be the effect or the level left; settings: time 9 hrs
Escherichia coli [26] = test: as §1, with “IL-1beta” for “TNFalpha”; format: functional; parameters: scale not given: the % may be the effect or the level left; settings: time 9 hrs

## C[C@@H](c1ccccc1)N(CC(=O)N(CCCCN)CC(=O)N(CCc1c[nH]c2ccccc12)CC(=O)N(CCc1c[nH]c2ccccc12)CC(N)=O)C(=O)CN(CCCCN)C(=O)CN(CCCCN)C(=O)CN(C(=O)CN(C(=O)CN(CCCCN)C(=O)CN(C(=O)CN(C(=O)CN(CCCCN)C(=O)[C@H](Cc1c[nH]cn1)NC(=O)CNC(=O)CN)[C@@H](C)c1ccccc1)[C@@H](C)c1ccccc1)[C@@H](C)c1ccccc1)[C@@H](C)c1ccccc1 (H-GGH[Nlys][Nspe][Nspe][Nlys][Nspe][Nspe][Nlys][Nlys][Nspe][Nlys][Gly(N(CH2)2(3-indolyl))][Gly(N(CH2)2(3-indolyl))]-NH2)
Streptococcus pneumoniae [1]
  Activity: Active
Acinetobacter baumannii
  MIC: 3.1 µM (≈ 6.56 µg/mL)
Escherichia coli [2]
  Activity: 46.6%
Escherichia coli [3]
  Activity: 32.8%
[4]
  Activity: Non-Toxic
Escherichia coli [5]
  Activity: Active
Escherichia coli [6]
  MIC: 12.5 µM (≈ 26.4 µg/mL)
Escherichia coli [7]
  Activity: 32.7%
L929
  Activity: Non-Toxic
[8]
  Activity: Non-Toxic
Escherichia coli [9]
  Activity: Active
Escherichia coli [10]
  Activity: Active
RAW264.7 [11]
  Activity: 99.3%
[12]
  HC50 at 1 h: > 100 µM
Escherichia coli [13]
  MIC: 6.3 µM (≈ 13.3 µg/mL)
Escherichia coli [14]
  Activity: Active
RAW264.7 [15]
  Activity: 32.5%
Cell membrane
  Activity: Dose-Dependent Effect
[16]
  hemolysis at 1 h, 100 µM: 5.57%
RAW264.7 [17]
  inhibition: Active
RAW264.7 [18]
  LC50: 39.6 µM
HEK-Blue hTLR7
  inhibition: 84.3%
Escherichia coli [19]
  Activity: Active
Escherichia coli [20]
  Activity: Active
Escherichia coli [21]
  Activity: 42.8%
Lipopolysaccharide (LPS)
  Activity: Active
Staphylococcus aureus
  MIC: 12.5 µM (≈ 26.4 µg/mL)
[22]
  viability at 24 h, 20 µM: 74.1%
Escherichia coli [23]
  Activity: Active
DNA
  Activity: Active
Streptococcus pneumoniae [24]
  MBC: 12.5 µM (≈ 26.4 µg/mL)
  MIC: 6.3 µM (≈ 13.3 µg/mL)
Escherichia coli [25]
  Activity: 51.1%
Escherichia coli [26]
  Activity: 48.3%
